{"source": "ChEMBL document CHEMBL2046439", "about": "“Spectaflavoside A, a new potent iron chelating dimeric flavonol glycoside from the rhizomes of Zingiber spectabile Griff” (Bioorg Med Chem Lett, 2012)", "key": {"[1]": {"system": "A549", "experiment": "Antiproliferative activity against human A549 cells after 48 hrs by MTS assay", "format": "functional, cell-based", "settings": "A549, 48 h"}, "[2]": {"system": "DU-145", "experiment": "Antiproliferative activity against human DU145 cells after 48 hrs by MTS assay", "format": "functional, cell-based", "settings": "DU-145, 48 h"}, "[3]": {"system": "SK-MEL-5", "experiment": "Antiproliferative activity against human SK-MEL-5 cells after 48 hrs by MTS assay", "format": "functional, cell-based", "settings": "SK-MEL-5, 48 h"}, "[4]": {"system": "BXPC-3", "experiment": "Antiproliferative activity against human BxPC3 cells after 48 hrs by MTS assay", "format": "functional, cell-based", "settings": "BXPC-3, 48 h"}, "[5]": {"system": "HepG2", "experiment": "Antiproliferative activity against human HepG2 cells after 48 hrs by MTS assay", "format": "functional, cell-based", "settings": "HepG2, 48 h"}, "[6]": {"system": "HT-29", "experiment": "Antiproliferative activity against human HT-29 cells after 48 hrs by MTS assay", "format": "functional, cell-based", "settings": "HT-29, 48 h"}, "[7]": {"system": "MCF7", "experiment": "Antiproliferative activity against human MCF7 cells after 48 hrs by MTS assay", "format": "functional, cell-based", "settings": "MCF7, 48 h"}, "[8]": {"system": "MDA-MB-231", "experiment": "Antiproliferative activity against human MDA-MB-231 cells after 48 hrs by MTS assay", "format": "functional, cell-based", "settings": "MDA-MB-231, 48 h"}, "[9]": {"experiment": "Fe2+ chelating activity of the compound incubated for 5 mins prior to ferrozine-addition measured after 10 mins by spectrophotometry", "format": "functional", "parameters": "concentration or dose not given beside the values"}}, "note": "Counter-ions that a name gives are not always drawn.", "data": [{"smiles": "CC(=O)O[C@@H]1[C@@H](O)[C@@H](O)[C@H](Oc2c(-c3ccc(O)cc3)oc3cc(O)cc(O)c3c2=O)O[C@H]1C", "values": [{"measurement": "IC50", "setting": "[1]", "result": "> 150", "unit": "µM"}, {"measurement": "IC50", "setting": "[2]", "result": "> 150", "unit": "µM"}, {"measurement": "IC50", "setting": "[3]", "result": "> 150", "unit": "µM"}, {"measurement": "IC50", "setting": "[4]", "result": "> 150", "unit": "µM"}, {"measurement": "IC50", "setting": "[5]", "result": "> 150", "unit": "µM"}, {"measurement": "IC50", "setting": "[6]", "result": "> 150", "unit": "µM"}, {"measurement": "IC50", "setting": "[7]", "result": "> 150", "unit": "µM"}, {"measurement": "IC50", "setting": "[8]", "result": "> 150", "unit": "µM"}, {"measurement": "Activity", "setting": "[9]", "result": 29.1, "unit": "%"}]}, {"smiles": "CC(=O)O[C@@H]1[C@@H](O)[C@@H](OC(C)=O)[C@H](Oc2c(-c3ccc(O)cc3)oc3cc(O)cc(O)c3c2=O)O[C@H]1C", "values": [{"measurement": "IC50", "setting": "[1]", "result": "> 150", "unit": "µM"}, {"measurement": "IC50", "setting": "[2]", "result": "> 150", "unit": "µM"}, {"measurement": "IC50", "setting": "[3]", "result": "> 150", "unit": "µM"}, {"measurement": "IC50", "setting": "[4]", "result": 113, "unit": "µM"}, {"measurement": "IC50", "setting": "[5]", "result": "> 150", "unit": "µM"}, {"measurement": "IC50", "setting": "[6]", "result": "> 150", "unit": "µM"}, {"measurement": "IC50", "setting": "[7]", "result": "> 150", "unit": "µM"}, {"measurement": "IC50", "setting": "[8]", "result": "> 150", "unit": "µM"}, {"measurement": "Activity", "setting": "[9]", "result": 49.1, "unit": "%"}]}, {"smiles": "CC(=O)O[C@@H]1[C@@H](O)[C@@H](O)[C@H](Oc2c(-c3ccc(O)cc3)oc3cc(O)c(-c4c(O)cc(O)c5c(=O)c(O[C@@H]6O[C@@H](C)[C@H](OC(C)=O)[C@@H](O)[C@H]6O)c(-c6ccc(O)cc6)oc45)c(O)c3c2=O)O[C@H]1C", "values": [{"measurement": "Activity", "setting": "[9]", "result": 87.4, "unit": "%"}]}, {"smiles": "CC(=O)O[C@@H]1[C@@H](O)[C@H](C)O[C@@H](Oc2c(-c3ccc(O)cc3)oc3cc(O)cc(O)c3c2=O)[C@@H]1OC(C)=O", "values": [{"measurement": "Activity", "setting": "[9]", "result": 52.2, "unit": "%"}]}, {"smiles": "CC(=O)O[C@@H]1[C@@H](OC(C)=O)[C@@H](O)[C@H](Oc2c(-c3ccc(O)cc3)oc3cc(O)cc(O)c3c2=O)O[C@H]1C", "values": [{"measurement": "Activity", "setting": "[9]", "result": 55.4, "unit": "%"}]}, {"smiles": "O=c1c(O)c(-c2ccc(O)cc2)oc2cc(O)cc(O)c12", "values": [{"measurement": "Activity", "setting": "[9]", "result": 12.1, "unit": "%"}]}, {"smiles": "COc1cc(/C=C/C(=O)CC(=O)/C=C/c2ccc(O)c(OC)c2)ccc1O", "note": "[CURCUMIN]", "values": [{"measurement": "IC50", "setting": "[1]", "result": 62.6, "unit": "µM"}, {"measurement": "IC50", "setting": "[2]", "result": 38.2, "unit": "µM"}, {"measurement": "IC50", "setting": "[3]", "result": 50.4, "unit": "µM"}, {"measurement": "IC50", "setting": "[4]", "result": 11.4, "unit": "µM"}, {"measurement": "IC50", "setting": "[5]", "result": 59.4, "unit": "µM"}, {"measurement": "IC50", "setting": "[6]", "result": 15.9, "unit": "µM"}, {"measurement": "IC50", "setting": "[7]", "result": 65.2, "unit": "µM"}, {"measurement": "IC50", "setting": "[8]", "result": 64.7, "unit": "µM"}, {"measurement": "Activity", "setting": "[9]", "result": 37.9, "unit": "%"}]}, {"smiles": "COc1cc(/C=C/C(O)=C/C(=O)/C=C/c2ccc(O)cc2)ccc1O", "note": "[DEMETHOXYCURCUMIN]", "values": [{"measurement": "IC50", "setting": "[1]", "result": 74.1, "unit": "µM"}, {"measurement": "IC50", "setting": "[2]", "result": 48.1, "unit": "µM"}, {"measurement": "IC50", "setting": "[3]", "result": 61.4, "unit": "µM"}, {"measurement": "IC50", "setting": "[4]", "result": 24.1, "unit": "µM"}, {"measurement": "IC50", "setting": "[5]", "result": 80, "unit": "µM"}, {"measurement": "IC50", "setting": "[6]", "result": 19.4, "unit": "µM"}, {"measurement": "IC50", "setting": "[7]", "result": 75.3, "unit": "µM"}, {"measurement": "IC50", "setting": "[8]", "result": 87.5, "unit": "µM"}, {"measurement": "Activity", "setting": "[9]", "result": 50.9, "unit": "%"}]}, {"smiles": "CC[C@]1(O)C[C@@H]2CN(CCc3c([nH]c4ccccc34)[C@@](C(=O)OC)(c3cc4c(cc3OC)N(C)[C@H]3[C@@](O)(C(=O)OC)[C@H](OC(C)=O)[C@]5(CC)C=CCN6CC[C@]43[C@@H]65)C2)C1", "note": "[VINBLASTINE SULFATE]", "values": [{"measurement": "IC50", "setting": "[1]", "result": 2.36, "unit": "µM"}, {"measurement": "IC50", "setting": "[2]", "result": 4.25, "unit": "µM"}, {"measurement": "IC50", "setting": "[3]", "result": 1.74, "unit": "µM"}, {"measurement": "IC50", "setting": "[4]", "result": 1.13, "unit": "µM"}, {"measurement": "IC50", "setting": "[5]", "result": 0.16, "unit": "µM"}, {"measurement": "IC50", "setting": "[6]", "result": 11.2, "unit": "µM"}, {"measurement": "IC50", "setting": "[7]", "result": 24.1, "unit": "µM"}, {"measurement": "IC50", "setting": "[8]", "result": 31.5, "unit": "µM"}]}]}
